# Test results from patent publication US20250011368A1, “DLL3 TARGETING PEPTIDES AND CONSTRUCTS THEREOF” (MARIANA ONCOLOGY INC., priority 2023, published 2025).
# Bridge positions count the residues as written; N and C are the ends. Square brackets hold non-standard residues; d marks the D form. Peptide text beside a SMILES is read from it. * marks the point of attachment. ξ: configuration not given here. DOTA = O=C(O)CN1CCN(CC(=O)O)CCN(CC(=O)*)CCN(CC(=O)O)CC1; 2Nal = N[C@@H](Cc1ccc2ccccc2c1)C(=O)O; αMeI = CC[C@H](C)[C@](C)(N)C(=O)O; Trx = NC[C@H]1CC[C@H](C(=O)O)CC1; ξαMeD = CC(N)(CC(=O)O)C(=O)O; 4Amb = NCc1ccc(C(=O)O)cc1; Orn = NCCC[C@H](N)C(=O)O
# Molecular target: T1, human DLL3 (Homo sapiens, UniProt Q9NYJ7)
# T1 sequence (Q9NYJ7 27-618): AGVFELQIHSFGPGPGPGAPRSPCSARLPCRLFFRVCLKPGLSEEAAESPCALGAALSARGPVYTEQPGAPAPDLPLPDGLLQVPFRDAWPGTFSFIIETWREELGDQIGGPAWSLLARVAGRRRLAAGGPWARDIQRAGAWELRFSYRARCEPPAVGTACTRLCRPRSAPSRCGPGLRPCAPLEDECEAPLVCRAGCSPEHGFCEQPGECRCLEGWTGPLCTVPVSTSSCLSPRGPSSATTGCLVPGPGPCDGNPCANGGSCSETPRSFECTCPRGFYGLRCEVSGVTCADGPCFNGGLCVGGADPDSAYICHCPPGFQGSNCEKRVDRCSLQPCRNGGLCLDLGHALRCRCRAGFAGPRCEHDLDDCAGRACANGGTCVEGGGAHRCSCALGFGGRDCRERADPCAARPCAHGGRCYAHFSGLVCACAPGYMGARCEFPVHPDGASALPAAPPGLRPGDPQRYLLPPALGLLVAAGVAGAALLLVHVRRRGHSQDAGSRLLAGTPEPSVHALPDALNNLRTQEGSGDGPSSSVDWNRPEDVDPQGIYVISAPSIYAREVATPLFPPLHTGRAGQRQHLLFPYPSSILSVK
# Test: Affinity determination by Surface Plasmon Resonance (SPR)
# Type: binding
# Conditions: 25° C., biotinylated human DLL3 immobilized on streptavidin sensor chip, 1:1 binding model; read-out: SPR KD
# Outline: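 Kinetic and affinity constants were derived by fitting sensorgrams to a 1:1 binding model. Graded compound concentrations flowed at 100 μL/minute in 20 mM phosphate running buffer with 2% DMSO over streptavidin-immobilized biotinylated human DLL3, reference-subtracted.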
row,Kd,SMILES
1,10 to 100 nM,"CC[C@H](C)[C@](C)(NC(=O)[C@@H](NC(=O)[C@H](Cc1c[nH]c2ccccc12)NC(C)=O)[C@@H](C)O)C(=O)N[C@H]1CSSC[C@@H](C(=O)N[C@@H](Cc2c[nH]c3ccccc23)C(=O)N2CCC[C@H]2C(=O)N[C@H](CCCCNC(=O)CN2CCN(CC(=O)O)CCN(CC(=O)O)CCN(CC(=O)O)CC2)C(N)=O)NC(=O)[C@H](CC(=O)O)NC(=O)[C@H](Cc2cnc[nH]2)NC(=O)[C@H](Cc2c[nH]c3ccccc23)NC(=O)[C@H](CC(N)=O)NC(=O)[C@H](CC(N)=O)NC1=O [compound 409, Ac-W-T-(aMe-I)-C(3)-N-N-W-H-D-C(3)-W-P-[D-Lys(DOTA)]-NH2] (Ac-WT[αMeI]CNNWHDCWP[dK](DOTA)-NH2; disulfide 4-10)"
2,1 to 10 nM,"CC[C@H](C)[C@H](NC(=O)[C@@H](NC(=O)[C@H](Cc1c[nH]c2ccccc12)NC(C)=O)[C@@H](C)O)C(=O)N[C@H]1CSSC[C@@H](C(=O)N[C@@H](Cc2c[nH]c3ccccc23)C(=O)N2CCC[C@H]2C(=O)N[C@H](CCCCNC(=O)CN2CCN(CC(=O)O)CCN(CC(=O)O)CCN(CC(=O)O)CC2)C(N)=O)NC(=O)C(C)(CC(=O)O)NC(=O)[C@H](Cc2cnc[nH]2)NC(=O)[C@H](Cc2c[nH]c3ccccc23)NC(=O)[C@H](CC(N)=O)NC(=O)[C@H](CC(N)=O)NC1=O (stereo partly drawn) [compound 410, Ac-W-T-I-C(3)-N-N-W-H-(aMe-D)-C(3)-W-P-[D-Lys(DOTA)]-NH2] (Ac-WTICNNWH[ξαMeD]CWP[dK](DOTA)-NH2; disulfide 4-10)"

# Further lines, the compound ahead of its results:
row,SMILES,Kd
1,"CC[C@H](C)[C@H](NC(=O)[C@@H](NC(=O)[C@H](Cc1c[nH]c2ccccc12)NC(C)=O)[C@@H](C)O)C(=O)N[C@H]1CSSC[C@@H](C(=O)N[C@@H](Cc2c[nH]c3ccccc23)C(=O)N2CCC[C@H]2C(=O)NC[C@H]2CC[C@H](C(=O)NC[C@H]3CC[C@H](C(=O)N[C@H](CCCCNC(=O)CN4CCN(CC(=O)O)CCN(CC(=O)O)CCN(CC(=O)O)CC4)C(N)=O)CC3)CC2)NC(=O)[C@H](CC(=O)O)NC(=O)[C@H](Cc2cnc[nH]2)NC(=O)[C@H](Cc2ccc3ccccc3c2)NC(=O)[C@H](CC(N)=O)NC(=O)[C@H](CC(N)=O)NC1=O [compound 373, Ac-W-T-I-C(3)-N-N-(2Nal)-H-D-C(3)-W-P-(Cyx)2-[D-Lys(DOTA)]-NH2] (Ac-WTICNN[2Nal]HDCWP[Trx][Trx][dK](DOTA)-NH2; disulfide 4-10)",< 1 nM
2,"CC[C@H](C)[C@H](NC(=O)[C@@H](NC(=O)[C@H](Cc1c[nH]c2ccccc12)NC(C)=O)[C@@H](C)O)C(=O)N[C@H]1CSSC[C@@H](C(=O)N[C@@H](Cc2c[nH]c3ccccc23)C(=O)N2CCC[C@H]2C(=O)NCc2ccc(C(=O)N[C@H](CCCCNC(=O)CN3CCN(CC(=O)O)CCN(CC(=O)O)CCN(CC(=O)O)CC3)C(N)=O)cc2)NC(=O)[C@H](CC(=O)O)NC(=O)[C@H](Cc2c[nH]cn2)NC(=O)[C@H](Cc2ccc3ccccc3c2)NC(=O)[C@H](CC(N)=O)NC(=O)[C@H](CC(N)=O)NC1=O [compound 374, Ac-W-T-I-C(3)-N-N-(2Nal)-H-D-C(3)-W-P-(AMBX)-[D-Lys(DOTA)]-NH2] (Ac-WTICNN[2Nal]HDCWP[4Amb][dK](DOTA)-NH2; disulfide 4-10)",< 1 nM
3,"CC[C@H](C)[C@H](NC(=O)[C@@H](NC(=O)[C@H](Cc1c[nH]c2ccccc12)NC(C)=O)[C@@H](C)O)C(=O)N[C@H]1CSSC[C@@H](C(=O)N[C@@H](Cc2c[nH]c3ccccc23)C(=O)N2CCC[C@H]2C(=O)N[C@H](CCCCNC(=O)CN2CCN(CC(=O)O)CCN(CC(=O)O)CCN(CC(=O)O)CC2)C(=O)O)NC(=O)[C@H](CC(=O)O)NC(=O)[C@H](CCCN)NC(=O)[C@H](Cc2ccc3ccccc3c2)NC(=O)[C@H](CC(N)=O)NC(=O)[C@H](CC(N)=O)NC1=O [compound 376, Ac-W-T-I-C(3)-N-N-(2Nal)-Orn-D-C(3)-W-P-[D-Lys(DOTA)]-NH2] (Ac-WTICNN[2Nal][Orn]DCWP[dK](DOTA)-OH; disulfide 4-10)",< 1 nM
